Holding throughout (assay): Fluorogenic Assay
Common to all, as to conditions: pH 8; 37 °C

Assay [1] concerns the target T1, Sentrin-specific protease 2 (Homo sapiens, UniProt Q9HC62).
T1 sequence (Q9HC62 whole entry): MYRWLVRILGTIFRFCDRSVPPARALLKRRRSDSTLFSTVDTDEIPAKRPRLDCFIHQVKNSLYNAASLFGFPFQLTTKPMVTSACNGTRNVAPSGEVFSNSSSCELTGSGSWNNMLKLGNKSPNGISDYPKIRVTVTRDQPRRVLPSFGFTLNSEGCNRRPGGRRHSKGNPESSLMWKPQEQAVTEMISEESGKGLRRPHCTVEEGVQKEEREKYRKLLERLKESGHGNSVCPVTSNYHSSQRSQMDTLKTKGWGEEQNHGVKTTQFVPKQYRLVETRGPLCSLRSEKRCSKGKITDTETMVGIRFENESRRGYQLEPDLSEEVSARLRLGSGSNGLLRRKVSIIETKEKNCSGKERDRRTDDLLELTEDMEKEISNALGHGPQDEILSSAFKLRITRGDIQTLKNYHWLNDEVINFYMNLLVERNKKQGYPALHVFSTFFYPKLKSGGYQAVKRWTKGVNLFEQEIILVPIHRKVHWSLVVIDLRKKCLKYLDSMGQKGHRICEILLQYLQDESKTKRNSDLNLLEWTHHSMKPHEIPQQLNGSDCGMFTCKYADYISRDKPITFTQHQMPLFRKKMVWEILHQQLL

Assay [2] concerns the target T2, Sentrin-specific protease 7 (Homo sapiens, UniProt Q9BQF6).
T2 sequence (Q9BQF6 whole entry): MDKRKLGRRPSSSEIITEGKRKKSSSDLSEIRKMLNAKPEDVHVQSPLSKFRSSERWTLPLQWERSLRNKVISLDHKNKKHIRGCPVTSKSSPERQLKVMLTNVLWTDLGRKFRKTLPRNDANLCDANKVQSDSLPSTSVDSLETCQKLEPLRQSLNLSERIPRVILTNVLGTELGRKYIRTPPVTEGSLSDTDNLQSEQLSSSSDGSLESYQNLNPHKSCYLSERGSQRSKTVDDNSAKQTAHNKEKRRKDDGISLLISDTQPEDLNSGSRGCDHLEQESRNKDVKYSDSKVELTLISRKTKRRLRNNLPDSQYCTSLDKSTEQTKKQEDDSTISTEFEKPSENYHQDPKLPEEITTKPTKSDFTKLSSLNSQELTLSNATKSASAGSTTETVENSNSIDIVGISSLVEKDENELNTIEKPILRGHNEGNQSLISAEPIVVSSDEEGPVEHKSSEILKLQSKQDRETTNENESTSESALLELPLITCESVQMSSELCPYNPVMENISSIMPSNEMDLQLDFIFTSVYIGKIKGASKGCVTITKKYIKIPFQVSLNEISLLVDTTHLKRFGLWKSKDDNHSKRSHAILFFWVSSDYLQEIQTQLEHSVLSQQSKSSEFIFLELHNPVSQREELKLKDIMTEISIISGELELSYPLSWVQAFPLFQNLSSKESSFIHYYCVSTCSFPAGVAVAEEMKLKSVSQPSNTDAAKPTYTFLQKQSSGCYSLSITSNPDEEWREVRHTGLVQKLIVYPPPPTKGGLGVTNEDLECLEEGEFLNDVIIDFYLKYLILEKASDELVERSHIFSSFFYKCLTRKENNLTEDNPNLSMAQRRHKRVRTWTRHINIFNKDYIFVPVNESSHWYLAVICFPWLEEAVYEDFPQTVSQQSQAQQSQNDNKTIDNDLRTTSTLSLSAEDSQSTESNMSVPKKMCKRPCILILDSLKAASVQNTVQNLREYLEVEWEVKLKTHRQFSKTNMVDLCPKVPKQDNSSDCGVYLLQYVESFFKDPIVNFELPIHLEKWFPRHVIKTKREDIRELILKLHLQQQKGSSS

Assay [3] deals with T3, Sentrin-specific protease 6 (Homo sapiens, UniProt Q9GZR1).
T3 sequence (Q9GZR1 whole entry): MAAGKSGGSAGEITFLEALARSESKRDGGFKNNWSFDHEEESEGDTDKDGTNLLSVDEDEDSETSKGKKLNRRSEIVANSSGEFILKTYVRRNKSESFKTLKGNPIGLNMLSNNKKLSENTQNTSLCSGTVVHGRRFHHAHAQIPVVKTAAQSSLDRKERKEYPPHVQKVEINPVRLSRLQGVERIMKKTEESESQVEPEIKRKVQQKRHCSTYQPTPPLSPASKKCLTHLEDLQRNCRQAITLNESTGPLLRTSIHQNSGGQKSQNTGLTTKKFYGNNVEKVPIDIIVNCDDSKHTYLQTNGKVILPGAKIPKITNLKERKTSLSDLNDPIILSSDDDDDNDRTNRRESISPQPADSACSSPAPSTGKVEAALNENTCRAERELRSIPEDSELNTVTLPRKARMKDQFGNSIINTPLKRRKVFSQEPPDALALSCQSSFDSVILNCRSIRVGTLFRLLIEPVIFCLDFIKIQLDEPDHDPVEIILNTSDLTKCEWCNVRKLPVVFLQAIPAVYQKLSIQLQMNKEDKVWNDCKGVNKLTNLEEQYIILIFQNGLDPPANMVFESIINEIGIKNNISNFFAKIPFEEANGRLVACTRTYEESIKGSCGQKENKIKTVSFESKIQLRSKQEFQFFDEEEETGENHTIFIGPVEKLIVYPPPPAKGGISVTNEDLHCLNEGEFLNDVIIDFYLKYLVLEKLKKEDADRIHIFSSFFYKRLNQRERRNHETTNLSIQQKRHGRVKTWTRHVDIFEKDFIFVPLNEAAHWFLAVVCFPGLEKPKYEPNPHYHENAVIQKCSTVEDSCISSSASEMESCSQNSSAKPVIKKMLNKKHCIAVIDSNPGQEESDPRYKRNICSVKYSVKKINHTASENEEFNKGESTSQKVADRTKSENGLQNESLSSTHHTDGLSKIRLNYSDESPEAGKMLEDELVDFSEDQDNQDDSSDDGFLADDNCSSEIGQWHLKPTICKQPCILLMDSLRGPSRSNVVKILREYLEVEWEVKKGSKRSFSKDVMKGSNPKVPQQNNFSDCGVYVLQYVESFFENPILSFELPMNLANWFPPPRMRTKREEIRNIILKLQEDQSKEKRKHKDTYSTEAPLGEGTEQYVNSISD

In assay [4] the target is T4, Sentrin-specific protease 1 (Homo sapiens, UniProt Q9P0U3).
T4 sequence (Q9P0U3 whole entry): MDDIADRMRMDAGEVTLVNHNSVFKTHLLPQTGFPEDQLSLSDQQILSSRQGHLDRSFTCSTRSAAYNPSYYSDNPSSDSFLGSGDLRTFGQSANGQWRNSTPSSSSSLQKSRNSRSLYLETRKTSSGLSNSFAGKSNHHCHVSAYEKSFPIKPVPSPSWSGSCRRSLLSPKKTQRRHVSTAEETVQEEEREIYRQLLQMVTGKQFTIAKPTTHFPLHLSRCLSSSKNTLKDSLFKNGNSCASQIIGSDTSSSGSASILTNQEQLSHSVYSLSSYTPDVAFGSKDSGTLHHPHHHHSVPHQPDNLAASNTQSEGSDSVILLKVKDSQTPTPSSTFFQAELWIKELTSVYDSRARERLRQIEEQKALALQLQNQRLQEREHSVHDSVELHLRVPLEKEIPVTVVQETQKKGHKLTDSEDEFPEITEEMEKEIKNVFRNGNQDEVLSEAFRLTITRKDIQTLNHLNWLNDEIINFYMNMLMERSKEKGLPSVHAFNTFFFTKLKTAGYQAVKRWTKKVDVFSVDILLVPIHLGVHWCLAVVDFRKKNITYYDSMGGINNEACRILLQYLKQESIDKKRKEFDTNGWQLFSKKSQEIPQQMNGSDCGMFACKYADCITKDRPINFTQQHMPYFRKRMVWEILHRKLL
How it is done:
The fluorogenic substrate library screen was performed with hSENP1 in low salt tris buffer at final concentration of 2uM. Fluorophore release (AFC) production was measured using fluorescence plate reader at 405nm/510nm for 10-60min.

*1 amine or outer side, *2 acyl side, *3 side chain or, on linkers, in order; H or OH if unused. Where a SMILES comes first, the peptide text is derived from it. [ ]: non-standard residue; d: D form. The star is where a group is joined. ξ: configuration not given here. ξThr(3S) = C[C@H](O[*:3])C(N[*:1])C(=O)[*:2]; X2 = O=C(CN*)COC(=O)c1c2ccccc2cc2ccccc12; X1 = O=C(Cc1ccc(O)c([N+](=O)[O-])c1)*

As usually defined, the IC50 is the concentration needed to halve the response being measured.

`CC(C)C[C@H](NC(=O)Cc1ccc(O)c([N+](=O)[O-])c1)C(=O)N[C@@H](CCCNC(=N)N)C(=O)NCC(=O)NCC(=O)COC(=O)c1c2ccccc2cc2ccccc12` [VEA-561]: the IC50 in assay [1] was 5.7 µM; in assay [2], 4.3 µM; in assay [3], 4.2 µM; in assay [4], over 25 µM.
On the same counts, the results for `C[C@H](O)C(NC(=O)[C@H](CCC(N)=O)NC(=O)[C@H](CCC(N)=O)NC(=O)Cc1ccc(O)c([N+](=O)[O-])c1)C(=O)NCC(=O)NCC(=O)COC(=O)c1c2ccccc2cc2ccccc12` (stereo partly drawn) [VEA-500] (X1-QQ[ξThr(3S)]G-X2) are 0.86 µM, over 100 µM, over 40 µM and over 20 µM.
For the compound `O=C(O)c1cccc(C(=O)NCc2ccc(C(=O)NNC(=O)[C@H]3O[C@@H]3C(=O)N(Cc3cccc4ccccc34)Cc3cccc4ccccc34)cc2)c1` [VEA-260], the IC50 is 3.7 µM in assay [1], 36.5 µM in assay [2], over 100 µM in assay [3] and 7.1 µM in assay [4].
On to `C[C@H](O)C(NC(=O)[C@H](CCC(N)=O)NC(=O)Cc1ccc(O)c([N+](=O)[O-])c1)C(=O)NCC(=O)NCC(=O)COC(=O)c1c2ccccc2cc2ccccc12` (some centres not stated) [VEA-499], for which the IC50 in assay [1] was 0.25 µM; in assay [2], over 100 µM; in assay [3], over 60 µM; in assay [4] it was 3.6 µM.
For the compound `NC(=O)[C@H](CC(=O)O)NC(=O)c1ccc(C(=O)NNC(=O)[C@H]2O[C@@H]2C(=O)N(Cc2cccc3ccccc23)Cc2cccc3ccccc23)cc1` [VEA-422], the IC50 in assay [1] was 10.4 µM; in assay [2] it was over 70 µM; in assay [3], over 100 µM; in assay [4], 22.4 µM.
In the case of `NC(=O)CNC(=O)c1ccc(C(=O)NNC(=O)[C@H]2O[C@@H]2C(=O)N(Cc2cccc3ccccc23)Cc2cccc3ccccc23)cc1` [VEA-417], the concentration for half-maximal inhibition (IC50) in assay [1] was 13.1 µM; in assay [2], over 70 µM; in assay [3], over 100 µM; in assay [4], 32.5 µM.
Regarding `O=C(CNC(=O)c1ccc(CNC(=O)c2cccc(C(=O)O)c2)cc1)COC(=O)c1c2ccccc2cc2ccccc12` [VEA-401], the half-maximal inhibitory concentration (IC50) is 13.4 µM in assay [1], over 20 µM in assay [2], over 40 µM in assay [3] and 23.1 µM in assay [4].
`O=C(O)CN(NC(=O)c1ccc(CNC(=O)c2cccc(C(=O)O)c2)cc1)C(=O)[C@H]1O[C@@H]1C(=O)N(Cc1cccc2ccccc12)Cc1cccc2ccccc12` [JCP-666]: the IC50 in assay [1] was 7 µM; in assay [2], over 70 µM; in assay [3] it was over 100 µM; in assay [4] it was 13.8 µM.

The record behind these values is BindingDB's records for doi:10.1016/j.chembiol.2011.05.008 (Stanford University, 2011).
